Series [1] concerns HCT116 human colon carcinoma cell line. In words: In vitro cell proliferation (MTT) assay, HCT116. The note with it: for IC50: Homo sapiens, HCT-116, MTT, 72 h exposure. In kind it is cell-based. On the procedure: (§1) The targeted compounds were tested for their in-vitro anti-cancer activity against three tumor cell lines (HCT116, Hep G2 and MCF-7). Doxorubicin was included in the experiments as a reference cytotoxic compound. Exponentially growing cells from different cancer cell lines were trypsinized, counted and seeded at the appropriate densities into 96-well microtiter plates. Cells then were incubated in a humidified atmosphere at 37 °C for 24 h. Then, cells were exposed to different concentrations of compounds for 72 h. Then the viability of treated cells was determined using MTT technique (described latter).
(§2) Three cancer cell lines including human colon carcinoma (HCT116), human breast adenocarcinoma (MCF-7) and human hepatocellular carcinoma (Hep G2), were purchased from American Type Cell Culture Collection (ATCC, Manassas, VA, USA) and grown on the appropriate growth medium Dulbecco’s modified Eagle’s medium (DMEM) or Roswell Park Memorial Institute medium (RPMI 1640) supplemented with […] of streptomycin, 100 units/mL of penicillin and 10% of heat-inactivated fetal bovine serum in a humidified, 5% (v/v) CO2 atmosphere at 37 °C [34]. Cytotoxicity assay by 3-[4,5-dimethylthiazole-2-yl]-2,5-diphenyltetrazolium bromide (MTT).
(§3) Exponentially growing cells from different cancer cell lines were trypsinized, counted and seeded at the appropriate densities (2000–1000 cells/0.33 cm^2 well) into 96-well microtiter plates. Cells then were incubated in a humidified atmosphere at 37 °C for 24 h. Then, cells were exposed to different concentrations of compounds (0.1, 10, 100, 1000 µM) for 72 h. Then the viability of treated cells was determined using MTT technique as follow. Media were removed; cells were incubated with 200 μL of 5% MTT solution/well (Sigma Aldrich, Darmstadt, Germany) and were allowed to metabolize the dye into a colored-insoluble formazan crystal for 2 h. The remaining MTT solution were discarded from the wells and the formazan crystals were dissolved in 200 µl/well acidified isopropanol for 30 min, covered with aluminum foil and with continuous shaking using a MaxQ 2000 plate shaker (Thermo Fisher Scientific Inc, Waltham, MA, USA) at room temperature. Absorbance were measured at 570 nm using a Stat Fax^R 4200 plate reader (Awareness Technology, Inc., Awareness Technology, FL, USA). The cell viability was expressed as percentage of control and the concentration that induces 50% of maximum inhibition of cell proliferation (IC50) were determined using Graph Pad Prism version 5 software (Graph Pad Software Inc, San Diego, CA, USA) (1,2).

The target of the next series is T1, VEGFR-2 (Homo sapiens, UniProt P35968).
T1 construct: purchased Bio Science Corporation (BPS), San Diego, CA, USA
T1 sequence (P35968 20-1356): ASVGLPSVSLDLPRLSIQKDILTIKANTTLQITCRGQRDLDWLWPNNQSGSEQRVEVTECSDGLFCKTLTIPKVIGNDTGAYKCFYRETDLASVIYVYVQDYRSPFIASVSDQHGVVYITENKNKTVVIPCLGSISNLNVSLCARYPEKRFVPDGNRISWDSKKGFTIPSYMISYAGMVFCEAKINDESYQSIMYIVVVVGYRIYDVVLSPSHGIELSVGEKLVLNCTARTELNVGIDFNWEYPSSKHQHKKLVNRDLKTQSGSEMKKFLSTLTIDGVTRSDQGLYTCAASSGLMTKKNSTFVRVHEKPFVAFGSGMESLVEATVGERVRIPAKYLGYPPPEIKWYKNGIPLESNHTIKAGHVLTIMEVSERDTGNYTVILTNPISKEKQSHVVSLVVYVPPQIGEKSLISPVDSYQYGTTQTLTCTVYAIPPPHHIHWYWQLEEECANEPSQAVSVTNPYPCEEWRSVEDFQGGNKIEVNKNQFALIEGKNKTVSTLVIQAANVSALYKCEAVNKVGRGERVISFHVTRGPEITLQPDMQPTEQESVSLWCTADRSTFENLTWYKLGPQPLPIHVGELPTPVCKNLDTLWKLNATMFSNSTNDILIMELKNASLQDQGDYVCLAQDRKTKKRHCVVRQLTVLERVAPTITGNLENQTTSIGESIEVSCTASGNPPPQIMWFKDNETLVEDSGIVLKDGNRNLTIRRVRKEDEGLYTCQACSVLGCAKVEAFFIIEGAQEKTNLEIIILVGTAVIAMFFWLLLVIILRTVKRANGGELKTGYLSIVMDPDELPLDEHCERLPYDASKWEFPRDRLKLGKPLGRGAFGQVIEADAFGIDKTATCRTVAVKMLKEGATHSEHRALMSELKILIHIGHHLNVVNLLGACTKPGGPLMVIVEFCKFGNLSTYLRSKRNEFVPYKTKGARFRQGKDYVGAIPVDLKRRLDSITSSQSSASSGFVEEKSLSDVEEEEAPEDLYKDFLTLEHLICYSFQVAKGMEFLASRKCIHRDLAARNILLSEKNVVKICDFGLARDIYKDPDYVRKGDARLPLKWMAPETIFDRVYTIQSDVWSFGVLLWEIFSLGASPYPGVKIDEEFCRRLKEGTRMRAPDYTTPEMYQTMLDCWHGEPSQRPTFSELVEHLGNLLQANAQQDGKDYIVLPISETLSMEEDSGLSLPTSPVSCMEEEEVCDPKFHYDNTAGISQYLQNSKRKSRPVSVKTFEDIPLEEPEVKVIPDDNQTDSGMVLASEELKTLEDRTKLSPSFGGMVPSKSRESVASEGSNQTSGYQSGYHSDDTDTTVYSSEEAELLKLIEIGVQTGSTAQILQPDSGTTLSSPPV
Kind of series: In vitro VEGFR-2 inhibition assay (Kinase-Glo Plus luminescence). In kind it is biochemical. The note with it: read-out: % of VEGFR-2 Inhibition. How it is done: In an attempt to investigate the possible mechanism of action of the synthesized compounds based on structural similarity with sorafenib, all of them were tested for VEGFR-2 inhibitory activity at Bio Science Corporation (BPS, San Diego, CA, USA). The assay was performed using the Kinase-Glo Plus luminescence kinase assay kit (Promega, San Diego, CA, USA). It measures kinase activity by quantitating the amount of ATP remaining in solution following a kinase reaction. […].
The in-vitro enzyme inhibition determination for the synthesized compounds was carried out at Bio Science Corporation (BPS)-San Diego, CA, USA. The assay was performed using Kinase-Glo Plus luminescence kinase assay kit (Promega), where the kinase activity was measured by quantitating the amount of ATP remaining in solution following a kinase reaction. The luminescent signal from the assay is correlated with the amount of ATP present and is inversely correlated with the amount of kinase activity. Our compounds were diluted with 10% DMSO and 5 µL of the dilution was added to a 50 µL reaction so that the final concentration of DMSO is 1% in all of reactions. All of the enzymatic reactions were conducted at 30 °C for 40 min. The 50 µL reaction mixture contains 40 mM Tris, pH 7.4, 10 mM MgCl2, 0.1 mg/mL BSA, 1 mM DTT, 10 µM ATP, Kinase substrate and the enzyme. After the enzymatic reaction, 50 µL of Kinase-Glo Plus Luminescence kinase assay solution (Promega San Diego, CA, USA) was added to each reaction and incubate the plate for 5 min at room temperature. Luminescence signal was measured using a BioTek Synergy 2 microplate reader.
Kinase activity assays were performed in duplicate at each concentration. The luminescence data were analyzed using the computer software, Graphpad Prism. The difference between luminescence intensities in the absence of Kinase (Lut) and in the presence of Kinase (Luc) was defined as 100% activity (Lut − Luc). Using luminescence signal (Lu) in the presence of the compound, % activity was calculated as:% activity = {(Lut − Lu)(Lut − Luc)} × 100% where Lu = the luminescence intensity in the presence of the compound.

Series [2] concerns Hep G2 human hepatocellular carcinoma cell line. In words: In vitro cell proliferation (MTT) assay, Hep G2. It counts as cell-based. The following applies: for IC50: Homo sapiens, HepG2, MTT, 72 h exposure. How it is done: as §1, §2, §3
The test system of series [3] is MCF-7 human breast adenocarcinoma cell line. Kind of series: In vitro cell proliferation (MTT) assay, MCF-7. It counts as cell-based. The note with it: for IC50: Homo sapiens, MCF7, MTT, 72 h exposure. On the procedure:
as §1, §2, §3

Molecules are shown by their SMILES. Where two headings read alike, the source gives them in different places. A value given as a limit tells only on which side of the number the result lay.

The record followed here is paper PMC6470675, “Design and Synthesis of New Quinoxaline Derivatives as Anticancer Agents and Apoptotic Inducers” (Molecules, 2019).

The melting point is the temperature of the solid-liquid transition. As a reminder, the IC50 is the midpoint of a concentration-inhibition curve. The inhibition is the relative decrease from the control value, in per cent.

For `Cc1nc2ccccc2nc1Nc1ccc(NC(=O)Nc2ccccc2)cc1` [Compound VIIIb, 1-(4-((3-Methylquinoxalin-2-yl)amino)phenyl)-3-phenylurea], the melting point is above 300 °C. In series [1], the “anti-cancer activity against HCT116 cell line (in words)” value is on record as “weak activity” and it took 38 µM to reach half-maximal inhibition (IC50). In addition, the inhibition at 10 µM on VEGFR-2 (single concentration of 10 µM) amounted to 4%. Besides, in series [2], the “anti-cancer activity against Hep G2 cell line (in words)” value is recorded as “no significant inhibitory activity” and the IC50 was 98 µM. Besides, the “loss of activity towards Hep G2 on conversion of thiourea VIIIa into the urea” value in series [2] (relative to VIIIa) stood at 10 fold. In series [3], the “anti-cancer activity against MCF-7 cell line (in words)” value is on record as “moderate activity” and the IC50 worked out at 13.5 µM.
For `Cc1cccc(NC(=O)Nc2ccc(Nc3nc4ccccc4nc3C)cc2)c1` [Compound VIIId, 1-(4-((3-Methylquinoxalin-2-yl)amino)phenyl)-3-(m-tolyl)urea], the melting point was 280 to 281 °C. Besides, in series [1], the “anti-cancer activity against HCT116 cell line (in words)” value is “moderate anti-cancer activity” and inhibition was half-maximal at 11 µM (IC50). Moreover, the inhibition at 10 µM on VEGFR-2 (single concentration of 10 µM) is 5%. In series [2], the “anti-cancer activity against Hep G2 cell line (in words)” value is given as “weak activity” and 36 µM corresponded to half-maximal inhibition (IC50). In addition, in series [3], the “anti-cancer activity against MCF-7 cell line (in words)” value is listed as “weak activity” and the IC50 is 30 µM.
Turning to `Cc1nc2ccccc2nc1Nc1ccc(NC(=O)c2ccc(Cl)cc2)cc1` [Compound VIIb, 4-Chloro-N-(4-((3-methylquinoxalin-2-yl)amino)phenyl)benzamide], the melting point lay in the range of 234 to 235 °C. Besides, in series [1], the “anti-cancer activity against HCT116 cell line (in words)” value is given as “weak activity” and the IC50 was found to be 27.5 µM. In addition, the inhibition at 10 µM on VEGFR-2 (single concentration of 10 µM) came out at 4%. In series [2], this compound registered an IC50 of 115 µM. In addition, the IC50 in series [3] was 138 µM.
Take `COc1cccc2c1C(=O)c1c(O)c3c(c(O)c1C2=O)C[C@@](O)(C(=O)CO)C[C@@H]3O[C@H]1C[C@H](N)[C@H](O)[C@H](C)O1` [Doxorubicin, reference compound]: the IC50 was determined as 0.62 µM in series [1], 1.2 µM in series [2] and 0.9 µM in series [3].
With `Cc1ccc(S(=O)(=O)Nc2ccc(Nc3nc4ccccc4nc3C)cc2)cc1` [IXa, 4-Methyl-N-(4-((3-methylquinoxalin-2-yl)amino)phenyl) benzenesulphonamide], the melting point fell in the range of 198 to 199 °C. The compound further came in with an IC50 in series [1] of 21.9 µM. In addition, the inhibition at 10 µM on VEGFR-2 (single concentration of 10 µM) came out at 3%. Also, the IC50 in series [2] was determined as 22.9 µM. In addition, the 50% inhibitory concentration (IC50) in series [3] is 22.9 µM.
Regarding `Cc1nc2ccccc2nc1Nc1ccc(NS(=O)(=O)c2ccc([N+](=O)[O-])cc2)cc1` [IXb, N-(4-((3-Methylquinoxalin-2-yl)amino)phenyl)-4-nitrobenzenesulfonamide], the melting point was in the range of 180 to 182 °C. The IC50 in series [1] stood at 12 µM. Besides, the inhibition at 10 µM on VEGFR-2 (single concentration of 10 µM) is 3%. Also, in series [2], the IC50 was determined as 24.5 µM. Also, the IC50 in series [3] is 10.2 µM.
In the case of `CN[C@@H]1C[C@H]2O[C@@](C)([C@@H]1OC)n1c3ccccc3c3c4c(c5c6ccccc6n2c5c31)C(=O)NC4` [Staurosporine, staurosporine, reference compound], the inhibition at 10 µM on VEGFR-2 was determined as 100%.
For the compound `Cc1ccc(S(=O)(=O)Nc2ccc(Nc3nc4ccccc4nc3Cl)cc2)cc1` [XVIIIa, N-(4-((3-Chloroquinoxalin-2-yl)amino)phenyl)-4-methylbenzenesulfonamide], the melting point lay in the range of 250 to 252 °C. Moreover, the IC50 in series [1] is 302 µM. For the same compound, the inhibition at 10 µM on VEGFR-2 (single concentration of 10 µM) was 4%. Besides, in series [2], the midpoint of inhibition, the IC50, lay at 490 µM. In series [3], this compound yielded an IC50 of 537 µM.
Take `O=[N+]([O-])c1ccc(S(=O)(=O)Nc2ccc(Nc3nc4ccccc4nc3Cl)cc2)cc1` [XVIIIb, N-(4-((3-Chloroquinoxalin-2-yl)amino)phenyl)-4-nitrobenzenesulfonamide]: the melting point was above 300 °C. Further, the IC50 in series [1] was above 1000 µM. Moreover, the inhibition at 10 µM on VEGFR-2 (single concentration of 10 µM) is 9%. In addition, the IC50 in series [2] was above 1000 µM. In series [3], the IC50 is 55 µM.
As to `S=C(Nc1ccccc1)Nc1ccc(Nc2nc3ccccc3nc2Cl)cc1` [XVIIa, 1-(4-((3-Chloroquinoxalin-2-yl)amino)phenyl)-3-phenylthiourea], the melting point fell in the range of 190 to 191 °C. In series [1], this compound had an IC50 of 309 µM. In addition, on VEGFR-2 (single concentration of 10 µM), the inhibition at 10 µM worked out at 10%. In series [2], this compound gave a half-maximal inhibitory concentration (IC50) of 575 µM. This compound also gave an IC50 in series [3] of 170 µM.
Take `O=C(Nc1ccccc1)Nc1ccc(Nc2nc3ccccc3nc2Cl)cc1` [XVIIb, 1-(4-((3-Chloroquinoxalin-2-yl)amino)phenyl)-3-phenylurea]: the melting point is 280 to 281 °C. The same compound yielded an IC50 in series [1] of 170 µM. For the same compound, at VEGFR-2 (single concentration of 10 µM), the inhibition at 10 µM worked out at 10%. Further, the IC50 in series [2] stood at 513 µM. Further, in series [3], inhibition was half-maximal at 148 µM (IC50).
Taken in the same sequence, the figures for `O=C(Nc1ccc(Cl)cc1)Nc1ccc(Nc2nc3ccccc3nc2Cl)cc1` [XVIIc, 1-(4-Chlorophenyl)-3-(4-((3-chloroquinoxalin-2-yl)amino)phenyl)urea] were above 300 °C, 257 µM, 6%, 616 µM and 692 µM.
On the same counts, the results for `Cc1cccc(NC(=O)Nc2ccc(Nc3nc4ccccc4nc3Cl)cc2)c1` [XVIId, 1-(4-((3-Chloroquinoxalin-2-yl)amino)phenyl)-3-(m-tolyl) urea] are above 300 °C, 190 µM, 5%, 513 µM and 64.5 µM.
`O=C(Nc1ccc(Nc2nc3ccccc3nc2Cl)cc1)c1ccccc1` [XVIa, N-(4-((3-Chloroquinoxalin-2-yl)amino)phenyl)benzamide]: the melting point was in the range of 270 to 273 °C. In series [1], this compound yielded an IC50 of 347 µM. The inhibition at 10 µM on VEGFR-2 (single concentration of 10 µM) turned out to be 8%. The same compound yielded an IC50 in series [2] of 513 µM. In addition, the IC50 in series [3] came out at 324 µM.
For the compound `O=C(Nc1ccc(Nc2nc3ccccc3nc2Cl)cc1)c1ccc(Cl)cc1` [XVIb, 4-Chloro-N-(4-((3-chloroquinoxalin-2-yl)amino)phenyl) benzamide], the melting point is 233 to 235 °C. The compound also yielded a half-inhibitory concentration (IC50) in series [1] above 1000 µM. The inhibition at 10 µM on VEGFR-2 (single concentration of 10 µM) is 4%. The compound further returned a 50% inhibitory concentration (IC50) in series [2] above 1000 µM. In series [3], this compound yielded an IC50 above 1000 µM.
`Cc1ccc(C(=O)Nc2ccc(Nc3nc4ccccc4nc3Cl)cc2)cc1` [XVId, N-(4-((3-Chloroquinoxalin-2-yl)amino)phenyl)-4-methylbenzamide] gave a melting point of 245 to 246 °C. Also, at VEGFR-2 (single concentration of 10 µM), the inhibition at 10 µM stood at 3%.
